One experiment has as its target Histone deacetylase 3 (Homo sapiens, UniProt O15379).
The target in another experiment is Histone deacetylase 2 (Homo sapiens, UniProt Q92769).

Structures are written as SMILES. Bounds are passed on as bounds.

Chain of Histone deacetylase 3 (O15379 whole entry): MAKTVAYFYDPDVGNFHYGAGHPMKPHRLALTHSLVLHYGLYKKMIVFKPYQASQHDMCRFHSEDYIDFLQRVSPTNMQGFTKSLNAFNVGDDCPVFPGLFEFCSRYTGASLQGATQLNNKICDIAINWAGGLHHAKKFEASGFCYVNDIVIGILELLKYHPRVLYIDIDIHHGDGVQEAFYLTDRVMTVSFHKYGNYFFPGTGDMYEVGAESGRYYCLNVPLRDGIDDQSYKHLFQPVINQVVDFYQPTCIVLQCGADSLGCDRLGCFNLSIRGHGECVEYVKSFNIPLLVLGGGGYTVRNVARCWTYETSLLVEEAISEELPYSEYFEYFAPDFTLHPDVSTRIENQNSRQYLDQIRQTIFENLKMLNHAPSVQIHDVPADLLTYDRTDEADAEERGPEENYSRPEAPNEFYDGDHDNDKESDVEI
Chain of Histone deacetylase 2 (Q92769 whole entry): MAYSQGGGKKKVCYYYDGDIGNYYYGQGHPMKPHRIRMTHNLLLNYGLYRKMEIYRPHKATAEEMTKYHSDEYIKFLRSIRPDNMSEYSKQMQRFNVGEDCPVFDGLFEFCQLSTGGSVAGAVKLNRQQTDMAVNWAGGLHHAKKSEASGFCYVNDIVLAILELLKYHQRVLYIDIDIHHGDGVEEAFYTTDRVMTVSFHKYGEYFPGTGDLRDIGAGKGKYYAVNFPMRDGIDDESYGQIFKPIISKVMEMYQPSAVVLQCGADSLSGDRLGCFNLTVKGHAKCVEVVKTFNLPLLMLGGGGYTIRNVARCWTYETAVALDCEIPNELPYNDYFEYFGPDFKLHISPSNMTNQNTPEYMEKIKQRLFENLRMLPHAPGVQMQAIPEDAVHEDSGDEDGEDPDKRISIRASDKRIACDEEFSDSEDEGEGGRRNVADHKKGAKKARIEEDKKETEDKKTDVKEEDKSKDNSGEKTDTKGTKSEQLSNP

`CC1(Nc2ncc(C(=O)Nc3cc(-c4ccccc4)ccc3N)cn2)CCNCC1` [US9790180, ID 041]: the IC50 at Histone deacetylase 3 is 252 nM; at Histone deacetylase 2 it was 26 nM.

As for `Nc1ccc(-c2ccccc2)cc1NC(=O)c1cnc(NC2CCN(C(=O)Cc3c[nH]c4ccccc34)CC2)nc1` [US9790180, ID 035], the IC50 on Histone deacetylase 3 is 1400 nM; against Histone deacetylase 2 it was 196 nM.

For `CN(c1ncc(C(=O)Nc2cc(-c3ccccc3)ccc2N)cn1)C1CCN(C(=O)Cc2c[nH]c3ccccc23)CC1` [US9790180, ID 033], the IC50 against Histone deacetylase 3 is more than 2000 nM; on Histone deacetylase 2, 211 nM.

The record behind these values is BindingDB's records for patent US9790180 (REGENACY PHARMACEUTICALS, LLC, 2017).
